In test [1] the target is human sodium channel Nav 1.8 (Homo sapiens (Human), UniProt Q9Y5Y9). As to the kind of experiment: Automated whole-cell voltage-clamp (ScreenPatch 384P), Nav 1.8 sodium current, Protocol 2. The format is cell-based. Conditions: read-out: Nav1.8 IC50. The procedure:
(§1) Biological assays were performed on Chinese hamster ovary (CHO) cells expressing the human sodium channels Nav 1.8 and Nav 1.7 stably.
(§2) The experimental voltage-clamp protocol using the whole cell configuration was established on the automated ScreenPatch® 384P platform (SP384PE, Nanion Technologies, Livingston, NJ) and recording of the results was performed with a Nanion 384-well Patch Clamp chip (NPC) (Nanion Technologies, Livingston, NJ).
(§3) Compounds of Formula (I), were diluted in eight concentrations in the extracellular solution composed of physiological saline, buffered with HEPES (mM): NaCl, 137; KCl, 4; CaCl2, 3.8; MgCl2, 1; HEPES, 10; Glucose, 10; pH 7.4. The […], 50; CsF, 90; MgCl2, 5; EGTA, 5; HEPES, 10; pH 7.2. The duration of exposure of each compound with the cells expressing Nav 1.7 or Nav 1.8 was at least five minutes and the assays were performed at room temperature.
(§4) The measurements of the sodium currents of Nav 1.8 and Nav 1.7 were obtained using the voltage protocols described below: • Protocol 1: A holding voltage of-90 mV was established followed by a voltage phase of 200 ms to-120 mV, followed by a voltage step of 10 mV for 1 second for Nav 1.8 or 0 mV for Nav 1.7, followed by a step of-100 mV for 20 ms, followed by a step of 20 ms for 10 mV for Nav 1.8 or 0 mV for Nav 1.7 (TP1A) before returning to the holding voltage of-90 mV. • Protocol 2: A holding voltage of-100 mV was established followed by an inactivation voltage step at −40 mV for 8 seconds, followed by a −100 mV step for 20 ms, followed by a 20 ms step for 10 mV for Nav 1.8 or 0 mV for Nav 1.7 (TP1A) before returning to the holding voltage of-100 mV.
(§5) Protocols were repeated at a frequency of 0.1 Hz (Protocol 1) or 0.05 Hz (Protocol 2) and current amplitude was quantified over the TP1A phase log. The variation in the peak amplitude of the current was evaluated according to the Formula described below, after exposure of the cells expressing the channels, at each concentration of the different compounds:
(§6) where ITP1A,basal, and ITP1A,molecule represent the entry peaks of sodium currents into TP1A prior to exposure to the compound and in the presence of the compound, respectively.
(§7) The decrease in peak current amplitude, after exposure of the cells to the compounds, was used to calculate the percent relative blocking of the channels relative to the positive control according to the Formula below: […]
(§8) where % V and % CP represent the averages of the values of current inhibition with a vehicle (DMSO) and positive controls, respectively. The sodium currents of the positive control were considered as 100%.
(§9) where [Test] represents the concentration of the evaluated molecule, IC50 is the concentration of the compound that generates half of the maximum inhibition, N is the Hill's coefficient and % Block′ is the percentage of the sodium channel current (Nav 1.8 and Nav 1.7) inhibited at each concentration of the evaluated molecule. Data were obtained by non linear least squares regression with XL fit for Excel (Microsoft, Redmond, WA).
(§10) Compounds were tested in at least one assay to obtain the IC50 value.

Test [2] deals with human sodium channel Nav 1.7 (Homo sapiens (Human), UniProt Q15858). As to the kind of experiment: Automated whole-cell voltage-clamp (ScreenPatch 384P), Nav 1.7 sodium current, Protocol 2. The following applies: read-out: Nav1.7 IC50. The format is cell-based. The procedure:
as §1, §2, §3, §4, §5, §6, §7, §8, §9, §10

SMILES strings stand for the structures.

Among the data in patent publication US20240335442A1 (Eurofarma Laboratórios S.A., priority 2021, published 2024) are IC50 values, retold here.

As a reminder, the IC50 is the concentration that gives 50% inhibition.

human sodium channel Nav 1.7, sequence (Q15858 whole entry): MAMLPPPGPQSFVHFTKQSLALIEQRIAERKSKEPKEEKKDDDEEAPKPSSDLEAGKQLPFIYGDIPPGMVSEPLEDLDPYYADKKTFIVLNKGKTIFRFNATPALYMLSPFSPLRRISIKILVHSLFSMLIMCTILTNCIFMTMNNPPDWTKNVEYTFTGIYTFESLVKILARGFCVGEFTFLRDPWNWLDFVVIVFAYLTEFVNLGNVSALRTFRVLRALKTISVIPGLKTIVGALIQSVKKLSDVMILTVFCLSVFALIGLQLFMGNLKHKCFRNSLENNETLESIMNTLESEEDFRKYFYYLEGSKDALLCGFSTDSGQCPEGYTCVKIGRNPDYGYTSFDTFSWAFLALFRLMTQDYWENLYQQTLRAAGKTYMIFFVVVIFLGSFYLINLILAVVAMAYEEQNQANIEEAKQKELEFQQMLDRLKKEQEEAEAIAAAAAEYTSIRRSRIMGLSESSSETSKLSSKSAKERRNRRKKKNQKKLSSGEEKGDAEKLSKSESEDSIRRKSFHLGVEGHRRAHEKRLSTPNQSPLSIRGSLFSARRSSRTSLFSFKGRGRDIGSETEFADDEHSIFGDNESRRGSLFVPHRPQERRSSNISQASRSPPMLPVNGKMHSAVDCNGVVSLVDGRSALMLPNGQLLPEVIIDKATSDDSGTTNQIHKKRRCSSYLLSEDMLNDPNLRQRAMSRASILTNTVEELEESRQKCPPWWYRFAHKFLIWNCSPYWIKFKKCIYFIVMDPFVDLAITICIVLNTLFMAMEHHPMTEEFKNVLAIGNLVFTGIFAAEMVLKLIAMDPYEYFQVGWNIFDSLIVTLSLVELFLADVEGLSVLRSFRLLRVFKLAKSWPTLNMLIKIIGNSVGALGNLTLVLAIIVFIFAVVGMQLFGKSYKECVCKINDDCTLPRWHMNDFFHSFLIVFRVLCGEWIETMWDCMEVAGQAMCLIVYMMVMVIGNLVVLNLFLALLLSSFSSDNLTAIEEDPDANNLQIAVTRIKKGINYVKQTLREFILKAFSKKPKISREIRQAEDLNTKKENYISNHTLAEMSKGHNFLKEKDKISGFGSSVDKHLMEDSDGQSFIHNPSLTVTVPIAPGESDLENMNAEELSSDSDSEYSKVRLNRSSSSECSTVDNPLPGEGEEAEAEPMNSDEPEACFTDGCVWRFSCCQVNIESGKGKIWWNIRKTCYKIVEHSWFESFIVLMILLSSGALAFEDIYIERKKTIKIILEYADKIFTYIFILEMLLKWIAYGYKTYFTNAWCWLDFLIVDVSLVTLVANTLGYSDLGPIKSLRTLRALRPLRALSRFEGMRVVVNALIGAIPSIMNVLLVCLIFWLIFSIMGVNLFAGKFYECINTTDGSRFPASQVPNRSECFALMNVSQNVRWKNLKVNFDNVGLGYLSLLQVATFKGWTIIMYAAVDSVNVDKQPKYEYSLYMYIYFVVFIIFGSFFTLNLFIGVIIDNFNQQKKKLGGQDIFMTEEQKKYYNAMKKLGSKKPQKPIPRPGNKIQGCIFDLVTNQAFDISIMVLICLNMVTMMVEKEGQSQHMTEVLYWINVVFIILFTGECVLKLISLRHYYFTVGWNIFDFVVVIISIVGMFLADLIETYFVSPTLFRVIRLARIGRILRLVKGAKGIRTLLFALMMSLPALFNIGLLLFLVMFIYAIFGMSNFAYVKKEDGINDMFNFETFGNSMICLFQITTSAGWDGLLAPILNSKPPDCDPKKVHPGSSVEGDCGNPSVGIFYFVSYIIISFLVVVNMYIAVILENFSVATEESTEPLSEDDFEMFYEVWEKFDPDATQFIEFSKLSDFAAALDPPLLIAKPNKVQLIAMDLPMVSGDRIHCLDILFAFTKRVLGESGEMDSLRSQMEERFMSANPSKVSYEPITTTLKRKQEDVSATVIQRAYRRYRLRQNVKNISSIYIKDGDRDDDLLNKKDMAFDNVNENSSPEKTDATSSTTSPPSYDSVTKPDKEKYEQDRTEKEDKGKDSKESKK
human sodium channel Nav 1.8, sequence (Q9Y5Y9 whole entry): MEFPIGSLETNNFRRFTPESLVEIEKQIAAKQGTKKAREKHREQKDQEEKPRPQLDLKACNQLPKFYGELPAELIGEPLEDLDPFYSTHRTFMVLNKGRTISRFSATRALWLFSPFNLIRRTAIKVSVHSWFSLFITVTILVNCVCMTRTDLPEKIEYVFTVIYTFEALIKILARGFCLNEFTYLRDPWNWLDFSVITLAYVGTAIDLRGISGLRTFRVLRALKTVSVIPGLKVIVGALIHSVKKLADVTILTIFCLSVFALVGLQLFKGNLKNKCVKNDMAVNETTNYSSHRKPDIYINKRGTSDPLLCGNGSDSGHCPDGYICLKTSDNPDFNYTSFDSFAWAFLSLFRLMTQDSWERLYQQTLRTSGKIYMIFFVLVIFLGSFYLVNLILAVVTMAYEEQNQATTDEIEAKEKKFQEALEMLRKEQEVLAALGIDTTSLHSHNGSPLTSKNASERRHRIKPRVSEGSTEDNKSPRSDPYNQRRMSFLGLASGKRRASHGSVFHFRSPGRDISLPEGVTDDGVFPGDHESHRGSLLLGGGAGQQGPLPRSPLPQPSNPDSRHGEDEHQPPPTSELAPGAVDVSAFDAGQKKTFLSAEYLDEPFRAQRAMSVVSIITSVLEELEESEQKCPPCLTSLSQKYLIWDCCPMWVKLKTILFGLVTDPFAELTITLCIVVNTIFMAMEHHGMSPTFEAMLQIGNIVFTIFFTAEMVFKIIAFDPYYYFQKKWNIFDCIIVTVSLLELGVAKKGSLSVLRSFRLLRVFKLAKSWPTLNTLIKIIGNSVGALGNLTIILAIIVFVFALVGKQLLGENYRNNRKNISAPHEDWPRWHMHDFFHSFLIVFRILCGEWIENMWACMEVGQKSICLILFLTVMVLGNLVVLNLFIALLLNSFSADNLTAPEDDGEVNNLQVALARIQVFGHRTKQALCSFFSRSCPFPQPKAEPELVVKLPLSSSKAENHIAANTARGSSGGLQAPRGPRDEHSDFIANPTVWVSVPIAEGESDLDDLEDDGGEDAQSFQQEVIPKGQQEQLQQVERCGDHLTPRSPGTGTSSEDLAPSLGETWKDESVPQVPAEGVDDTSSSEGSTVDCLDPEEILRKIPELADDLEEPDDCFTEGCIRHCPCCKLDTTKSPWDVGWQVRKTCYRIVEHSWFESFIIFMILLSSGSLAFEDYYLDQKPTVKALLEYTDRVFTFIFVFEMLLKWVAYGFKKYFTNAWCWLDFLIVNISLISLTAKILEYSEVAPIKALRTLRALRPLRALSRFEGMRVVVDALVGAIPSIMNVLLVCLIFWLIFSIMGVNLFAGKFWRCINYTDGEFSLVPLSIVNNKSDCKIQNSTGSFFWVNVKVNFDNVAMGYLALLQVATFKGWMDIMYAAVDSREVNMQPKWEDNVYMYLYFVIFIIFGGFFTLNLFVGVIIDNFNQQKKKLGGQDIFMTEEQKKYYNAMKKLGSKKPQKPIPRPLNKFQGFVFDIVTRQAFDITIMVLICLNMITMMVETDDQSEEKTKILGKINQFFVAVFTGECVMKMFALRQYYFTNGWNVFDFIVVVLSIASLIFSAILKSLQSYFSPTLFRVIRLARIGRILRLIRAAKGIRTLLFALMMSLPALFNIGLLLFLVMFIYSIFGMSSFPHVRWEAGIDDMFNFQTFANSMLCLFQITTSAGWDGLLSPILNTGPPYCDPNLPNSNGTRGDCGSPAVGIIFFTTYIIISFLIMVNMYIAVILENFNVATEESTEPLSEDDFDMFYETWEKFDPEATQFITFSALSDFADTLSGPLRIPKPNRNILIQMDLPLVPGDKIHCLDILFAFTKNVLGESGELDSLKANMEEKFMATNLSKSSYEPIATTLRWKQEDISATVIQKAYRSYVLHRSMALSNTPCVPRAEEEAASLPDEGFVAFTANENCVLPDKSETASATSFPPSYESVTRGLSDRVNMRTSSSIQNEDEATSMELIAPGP

On to `COc1cc(/C=N/NC(=O)c2cncc(-c3ccc(Cl)cc3)n2)cc(OC)c1` [Compound 1, 6-(4-chlorophenyl)-N′-[(E)-(3,5-dimethoxyphenyl)methylidene]pyrazine-2-carbohydrazide], for which the IC50 in test [1] and in test [2] was over 1000 nM each time.

For `CCOc1ccc(-c2cncc(C(=O)N/N=C/c3cc(OC)cc(OC)c3)n2)cc1` [Compound 2, (E)-N′-(3,5-dimethoxybenzylidene)-6-(4-ethoxyphenyl)pyrazine-2-carbohydrazide], the IC50 in test [1] was found to be 32.5 nM; in test [2] it was 239 nM.

Take `CCOc1ccc(-c2cncc(C(=O)N/N=C/c3cc(OC)ccc3OC)n2)cc1` [Compound 3, (E)-N′-(2,5-dimethoxybenzylidene)-6-(4-ethoxyphenyl)pyrazine-2-carbohydrazide]: the values for the IC50 in test [1] and in test [2] were 152 nM and 855 nM, respectively.

Consider `CCOc1ccc(-c2cncc(C(=O)N/N=C/c3cc(OC)cc4ocnc34)n2)cc1` [Compound 6, (E)-6-(4-ethoxyphenyl)-N′-((6-methoxybenzo[d]oxazol-4-yl)methylene)pyrazine-2-carbohydrazide], for which the IC50 in test [1] and in test [2] was over 300 nM in each case.

In the case of `CCOc1ccc(-c2cncc(C(=O)N/N=C/c3ccnc(OC)c3)n2)cc1` [Compound 10, (E)-6-(4-ethoxyphenyl)-N′-((2-methoxypyridin-4-yl)methylene)pyrazine-2-carbohydrazide], the IC50 in test [1] and in test [2] was over 300 nM each time.

For `CCOc1ccc(-c2cncc(C(=O)N/N=C/c3cc(OC)cc(OC)c3OC)n2)cc1` [Compound 13, (E)-6-(4-ethoxyphenyl)-N′-(2,3,5-trimethoxybenzylidene)pyrazine-2-carbohydrazide], the figures for the IC50 in test [1] and in test [2] were 73 nM and 189 nM, respectively.

Take `CCOc1ccc(-c2cncc(C(=O)N/N=C/c3cc(OC)cc(OC)c3OCC)n2)cc1` [Compound 14, (E)-N′-(2-ethoxy-3,5-dimethoxybenzylidene)-6-(4-ethoxyphenyl)pyrazine-2-carbohydrazide]: the 50% inhibitory concentration (IC50) worked out at 156 nM in test [1] and 308 nM in test [2].

As to `CCOc1ccc(-c2cncc(C(=O)N/N=C/c3cc(F)cc(OC)c3)n2)cc1` [Compound 15, (E)-6-(4-ethoxyphenyl)-N′-(3-fluoro-5-methoxybenzylidene)pyrazine-2-carbohydrazide], the figures for the IC50 in test [1] and in test [2] were 25.2 nM and 243 nM, respectively.

Take `CCCOc1cc(/C=N/NC(=O)c2cncc(-c3ccc(OCC)cc3)n2)cc(OC)c1` [Compound 16, (E)-6-(4-ethoxyphenyl)-N′-(3-methoxy-5-propoxybenzylidene)pyrazine-2-carbohydrazide]: the IC50 in test [1] came to 93.3 nM; in test [2], 224 nM.

Consider `CCOc1ccc(-c2cncc(C(=O)N/N=C/c3cc(OC)c(F)c(OC)c3)n2)cc1` [Compound 17, (E)-6-(4-ethoxyphenyl)-N′-(4-fluoro-3,5-dimethoxybenzylidene)pyrazine-2-carbohydrazide], for which the IC50 was determined as 232 nM in test [1] and 7860 nM in test [2].

Consider `CCOc1ccc(-c2cncc(C(=O)N/N=C/c3cc(OC)ccc3Cl)n2)cc1` [Compound 18, (E)-N′-(2-chloro-5-methoxybenzylidene)-6-(4-ethoxyphenyl)pyrazine-2-carbohydrazide], for which the IC50 in test [1] is 62.6 nM; in test [2] it was 237 nM.

Turning to `CCOc1ccc(-c2cncc(C(=O)N/N=C/c3cccc(OC)c3Cl)n2)cc1` [Compound 19, (E)-N′-(2-chloro-3-methoxybenzylidene)-6-(4-ethoxyphenyl)pyrazine-2-carbohydrazide], the figures for the IC50 in test [1] and in test [2] were 93.5 nM and 575 nM, respectively.

On to `CCOc1ccc(-c2cncc(C(=O)N/N=C/c3cc(OC)ccc3F)n2)cc1` [Compound 20, (E)-6-(4-ethoxyphenyl)-N′-(2-fluoro-5-methoxybenzylidene)pyrazine-2-carbohydrazide], for which the figures for the IC50 in test [1] and in test [2] were 13.3 nM and 228 nM, respectively.

On to `CCOc1ccc(-c2cncc(C(=O)N/N=C/c3cccc(OC)c3F)n2)cc1` [Compound 21, (E)-6-(4-ethoxyphenyl)-N′-(2-fluoro-3-methoxybenzylidene)pyrazine-2-carbohydrazide], for which the IC50 in test [1] was found to be 74.5 nM; in test [2], 268 nM.

Turning to `CCOc1ccc(-c2cncc(C(=O)N/N=C/c3cccc(OC)c3)n2)cc1` [Compound 22, (E)-6-(4-ethoxyphenyl)-N′-(3-methoxybenzylidene)pyrazine-2-carbohydrazide], the IC50 in test [1] is 27.2 nM; in test [2] it was 228 nM.

As to `CCOc1ccc(-c2cncc(C(=O)N/N=C/c3ccccc3OC)n2)cc1` [Compound 26, (E)-6-(4-ethoxyphenyl)-N′-(2-methoxybenzylidene)pyrazine-2-carbohydrazide], the results for the IC50 in test [1] and in test [2] were 24.9 nM and 322 nM, respectively.

In the case of `CCOc1ccc(-c2cncc(C(=O)N/N=C/c3cccc(OC)c3OC)n2)cc1` [Compound 27, (E)-N′-(2,3-dimethoxybenzylidene)-6-(4-ethoxyphenyl)pyrazine-2-carbohydrazide], the IC50 in test [1] was 221 nM; in test [2], 233 nM.

For `COc1cc(/C=N/NC(=O)c2cncc(-c3ccc(OC(C)C)cc3)n2)cc(OC)c1` [Compound 29, (E)-N′-(3,5-dimethoxybenzylidene)-6-(4-isopropoxyphenyl)pyrazine-2-carbohydrazide], the IC50 in test [1] worked out at 51.3 nM; in test [2], 63.1 nM.

Consider `COc1cc(/C=N/NC(=O)c2cncc(-c3ccc(OC4CCCC4)cc3)n2)cc(OC)c1` [Compound 30, 6-[4-(cyclopentyloxy)phenyl]-N′-[(E)-(3,5-dimethoxyphenyl)methylidene]pyrazine-2-carbohydrazide], for which the IC50 was 102 nM in test [1] and 55.6 nM in test [2].

`COc1cc(/C=N/NC(=O)c2cncc(-c3ccc(OC(F)(F)F)cc3)n2)cc(OC)c1` [Compound 31, N′-[(E)-(3,5-dimethoxyphenyl)methylidene]-6-[4-(trifluoromethoxy)phenyl]pyrazine-2-carbohydrazide]: the IC50 is 132 nM in test [1] and over 10000 nM in test [2].

For the compound `CCCOc1ccc(-c2cncc(C(=O)N/N=C/c3cc(OC)cc(OC)c3)n2)cc1` [Compound 32, N′-[(E)-(3,5-dimethoxyphenyl)methylidene]-6-(4-propoxyphenyl)pyrazine-2-carbohydrazide], the IC50 in test [1] came to 73.9 nM; in test [2] it was 210 nM.

With `COc1ccc(-c2cncc(C(=O)N/N=C/c3cc[nH]c(=O)c3)n2)cc1` [Compound 34, (E)-6-(4-methoxyphenyl)-N′-((2-oxo-1,2-dihydropyridin-4-yl)methylene)pyrazine-2-carbohydrazide], the figures for the IC50 in test [1] and in test [2] were over 1000 nM and over 10000 nM, respectively.

For `COc1ccc(-c2cncc(C(=O)N/N=C/c3ccc(F)c(C(N)=O)c3)n2)cc1` [Compound 35, (E)-2-fluoro-5-((2-(6-(4-methoxyphenyl)pyrazine-2-carbonyl)hydrazono)methyl)benzamide], the IC50 in test [1] is over 1000 nM; in test [2] it was over 10000 nM.

Turning to `COc1ccc(-c2cncc(C(=O)N/N=C/c3ccnc(C(N)=O)c3)n2)cc1` [Compound 36, (E)-4-((2-(6-(4-methoxyphenyl)pyrazine-2-carobnyl)hydrazono)methyl)picolinamide], the results for the IC50 in test [1] and in test [2] were over 1000 nM and over 10000 nM, respectively.

On to `COc1ccc(-c2cncc(C(=O)N/N=C/c3cccc(OC)c3)n2)cc1` [Compound 37, (E)-N′-(3-methoxybenzylidene)-6-(4-methoxyphenyl)pyrazine-2-carbohydrazide], for which the IC50 in test [1] is 115 nM; in test [2] it was 1570 nM.

In the case of `COc1ccc(-c2cncc(C(=O)N/N=C/c3cccc(CN(C)C)c3)n2)cc1` [Compound 38, (E)-N′-(3-((dimethylamino)methyl)benzylidene)-6-(4-methoxyphenyl)pyrazine-2-carbohydrazide], the IC50 in test [1] is over 1000 nM; in test [2], over 10000 nM.
